Measurements published in paper PMC8990417, “^18F-labeled Dimer-Sansalvamide A Cyclodecapeptide: A Novel Diagnostic Probe to Discriminate Pancreatic Cancer from Inflammation in a Nude Mice Model” (Journal of Cancer, 2022).

Legend:
[1] = tested on: PL45 cells; experiment: MTT bioactivity assay (cell viability); format: cell-based, human; settings: 72 hours incubation
Experimental: A 3-(4,5-Dimethylthiazol-2-yl)-2,5-Diphenyltetrazolium Bromide (MTT) (Thermo Fisher Scientifc, NY, USA) assay was used to test the bioactivity of NOTA-Dimer-San A cyclodecapeptide. PL45 cells (5000 cells) were seeded in a 96-well plate and incubated overnight. […]. Each concentration was performed in triplicate, and the drug was incubated with the cells for 72 hours. Then 10 μL of MTT (5 mg/mL) was added into each well, incubated for 4 hours until a purple precipitate was visible, and then 100 μL of a detergent reagent was added and incubated until the crystal was dissolved. Finally, the optical density (proportional to the number of live cells) was assessed with a Synergy H1 Hybrid Reader (BioTek® Instruments Inc., Winooski, Vermont, USA) at 570 nm. The cell viability (%) was calculated with GraphPad Prism 5.0 software (GraphPad Software Inc., San Diego, CA, USA).

[2] = biological target: T1, Hsp90 in PL45 cells (Homo sapiens, UniProt P07900); experiment: Confocal cell immunofluorescence; format: cell-based; settings: biotin-peptide detected with Cy5 labeled avidin, anti-Hsp90α antibody co-stain
T1 construct: endogenous in cells; host or cells: PL45 cells
Experimental: PL45 cells (3-5 × 10^5) were seeded in a confocal plate with 500 µL of culture medium and incubated for 24 hours at 37°C with 5% CO2. The cell culture medium was then removed, and the cells were rinsed 3 times using phosphate buffered saline (PBS). The cells were fixed using 400 µL of 4% paraformaldehyde (pH 7.4) for 20 minutes at room temperature (RT, ~20°C). Then 500 µL of 3% Bovine Serum Albumin (BSA) (Sigma-Aldrich Corp., St. Louis, MO, USA) was added and incubated for 30 minutes at RT for blocking. The cells were washed and then 250 µL of diluted anti-hsp90α antibody (1:250) or biotine-Dimer-San A peptide was added and incubated for 24 hours at 4°C. The cells were washed, and the desired concentration of the fluorescent-dye-labeled secondary antibody (Abcam, Cambridge, UK) or Cy5 labeled avidin (Vector Laboratories, Burlingame, CA, USA) was added and protected from light at RT for 60 minutes. The supernatant was discarded, and the cells were washed, then a drop of antifade mounting medium with DAPI (Vector Laboratories, Burlingame, CA, USA) was added and incubated for 45 minutes. The target antigen was visualized by confocal fluorescence microscopy Zeiss LSM 880 Airyscan (Carl Zeiss AG, Oberkochen, Germany).

[3] = tested on: pancreatic cancer PL45 cells; set-up: method as in PMID 20014866, PMID 29202402; settings: read-out: IC50 (inhibition of pancreatic cancer PL45 cells); cited from earlier work

C=CCNC1=C2C[C@@H](C)C[C@H](OC)[C@H](O)[C@@H](C)/C=C(\C)[C@H](OC(N)=O)[C@@H](OC)/C=C\C=C(/C)C(=O)NC(=CC1=O)C2=O [17AAG, 17-allylaminogeldanamycin]
IC50 [1]: 127 nM

Dimer-Sansalvamide A cyclodecapeptide [Dimer-San A]
binding / co-localization with Hsp90 (confocal immunofluorescence) [2]: bound to the Hsp90 target | IC50 [3]: 1 to 20 nM
